{"source": "ChEMBL document CHEMBL4393671", "about": "“Design of a Cyclin G Associated Kinase (GAK)/Epidermal Growth Factor Receptor (EGFR) Inhibitor Set to Interrogate the Relationship of EGFR and GAK in Chordoma” (J Med Chem, 2019)", "key": {"[1]": {"target": "Epidermal growth factor receptor (Homo sapiens, UniProt P00533)", "sequence (P00533 whole entry)": "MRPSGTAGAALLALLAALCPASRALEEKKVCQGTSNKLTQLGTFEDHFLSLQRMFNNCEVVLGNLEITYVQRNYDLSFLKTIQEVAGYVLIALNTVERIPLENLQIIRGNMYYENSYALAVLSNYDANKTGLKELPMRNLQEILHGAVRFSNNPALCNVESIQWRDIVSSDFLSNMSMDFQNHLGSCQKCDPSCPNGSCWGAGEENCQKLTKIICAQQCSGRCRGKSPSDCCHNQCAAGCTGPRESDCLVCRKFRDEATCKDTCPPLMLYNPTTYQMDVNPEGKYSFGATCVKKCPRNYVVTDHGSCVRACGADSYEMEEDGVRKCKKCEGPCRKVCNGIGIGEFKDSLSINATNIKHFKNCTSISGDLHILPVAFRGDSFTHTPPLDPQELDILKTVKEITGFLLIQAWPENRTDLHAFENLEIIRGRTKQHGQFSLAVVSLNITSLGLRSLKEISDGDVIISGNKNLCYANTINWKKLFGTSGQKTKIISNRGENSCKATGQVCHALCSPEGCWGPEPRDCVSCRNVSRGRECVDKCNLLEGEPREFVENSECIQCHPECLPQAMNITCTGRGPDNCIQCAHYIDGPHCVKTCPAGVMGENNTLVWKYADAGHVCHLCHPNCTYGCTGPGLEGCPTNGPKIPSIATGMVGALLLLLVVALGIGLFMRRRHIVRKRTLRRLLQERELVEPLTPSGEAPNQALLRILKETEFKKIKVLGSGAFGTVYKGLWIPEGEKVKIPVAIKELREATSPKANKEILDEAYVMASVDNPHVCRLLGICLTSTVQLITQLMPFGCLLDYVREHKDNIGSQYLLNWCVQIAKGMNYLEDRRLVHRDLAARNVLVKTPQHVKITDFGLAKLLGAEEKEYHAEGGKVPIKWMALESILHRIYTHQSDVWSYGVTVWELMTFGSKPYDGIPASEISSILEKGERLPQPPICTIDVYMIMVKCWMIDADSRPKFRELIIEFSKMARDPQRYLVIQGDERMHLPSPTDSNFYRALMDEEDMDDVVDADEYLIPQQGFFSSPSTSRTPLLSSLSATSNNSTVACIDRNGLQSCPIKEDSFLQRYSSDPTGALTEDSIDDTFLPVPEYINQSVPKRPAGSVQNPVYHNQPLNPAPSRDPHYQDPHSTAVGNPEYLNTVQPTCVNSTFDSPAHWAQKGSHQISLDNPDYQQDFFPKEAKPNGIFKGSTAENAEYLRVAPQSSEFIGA", "description": "Binding affinity to wild-type human partial length EGFR (R669 to V1011 residues) expressed in bacterial expression system by Kinomescan method"}, "[2]": {"target": "T1, Cyclin-G-associated kinase (Homo sapiens, UniProt O14976)", "T1 sequence (O14976 whole entry)": "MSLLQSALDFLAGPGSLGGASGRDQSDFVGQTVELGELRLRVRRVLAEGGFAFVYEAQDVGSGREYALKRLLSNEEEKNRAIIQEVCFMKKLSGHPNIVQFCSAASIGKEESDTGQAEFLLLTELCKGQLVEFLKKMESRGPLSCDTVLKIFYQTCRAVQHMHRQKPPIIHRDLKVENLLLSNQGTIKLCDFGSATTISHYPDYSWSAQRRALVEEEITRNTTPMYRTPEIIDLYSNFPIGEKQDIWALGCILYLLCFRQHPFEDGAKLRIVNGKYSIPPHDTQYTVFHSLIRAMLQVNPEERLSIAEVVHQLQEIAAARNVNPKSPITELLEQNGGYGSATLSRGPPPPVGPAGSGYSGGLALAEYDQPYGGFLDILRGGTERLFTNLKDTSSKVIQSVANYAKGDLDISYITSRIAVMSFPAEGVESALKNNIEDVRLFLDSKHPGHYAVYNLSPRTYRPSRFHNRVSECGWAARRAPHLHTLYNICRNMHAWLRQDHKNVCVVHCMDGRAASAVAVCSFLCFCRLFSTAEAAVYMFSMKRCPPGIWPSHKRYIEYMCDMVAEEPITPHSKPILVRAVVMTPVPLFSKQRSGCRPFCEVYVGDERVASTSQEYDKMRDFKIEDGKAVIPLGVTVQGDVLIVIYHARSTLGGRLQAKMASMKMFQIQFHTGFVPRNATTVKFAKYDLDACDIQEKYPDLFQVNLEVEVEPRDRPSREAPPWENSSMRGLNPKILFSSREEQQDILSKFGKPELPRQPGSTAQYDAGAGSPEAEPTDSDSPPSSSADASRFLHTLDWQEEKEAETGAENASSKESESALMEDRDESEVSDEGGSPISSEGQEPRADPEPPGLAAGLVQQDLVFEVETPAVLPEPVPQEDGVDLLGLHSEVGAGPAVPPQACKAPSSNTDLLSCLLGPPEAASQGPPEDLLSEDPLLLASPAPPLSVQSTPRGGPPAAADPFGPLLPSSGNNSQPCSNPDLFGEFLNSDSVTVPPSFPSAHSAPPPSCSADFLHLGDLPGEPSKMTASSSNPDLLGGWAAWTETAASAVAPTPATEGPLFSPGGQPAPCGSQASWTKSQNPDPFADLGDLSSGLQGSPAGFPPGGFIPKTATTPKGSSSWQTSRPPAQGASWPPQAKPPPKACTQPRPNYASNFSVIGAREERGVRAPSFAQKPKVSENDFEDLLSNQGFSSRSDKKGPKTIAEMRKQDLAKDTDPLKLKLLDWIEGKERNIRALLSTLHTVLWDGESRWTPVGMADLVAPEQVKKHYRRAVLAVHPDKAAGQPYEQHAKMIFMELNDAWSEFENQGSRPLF", "assay": "Inhibition of tracer 5 binding to human N-terminal nano luciferase-fused GAK expressed in HEK293 cells measured after 2 hrs by nanoBRET assay", "assay_type": "cell-based", "conditions": "hek293"}, "[3]": {"assay": "cells", "assay_type": "functional, cell-based", "conditions": "Homo sapiens, 72 h", "description": "Antiproliferative activity against human UMCHOR1 cells measured after 72 hrs by alamar blue assay"}, "[4]": {"assay": "cells", "assay_type": "functional, cell-based", "conditions": "Homo sapiens, 72 h", "remark": "listed apart in the source", "description": "Antiproliferative activity against human CH22 cells measured after 72 hrs by alamar blue assay"}, "[5]": {"assay": "cells", "assay_type": "functional, cell-based", "conditions": "Homo sapiens, 72 h", "remark": "listed apart in the source", "description": "Antiproliferative activity against human UCH14 cells measured after 72 hrs by alamar blue assay"}, "[6]": {"target": "T2, STE20-related kinase adapter protein alpha (Homo sapiens) (UniProt Q7RTN6)", "T2 sequence (whole entry)": "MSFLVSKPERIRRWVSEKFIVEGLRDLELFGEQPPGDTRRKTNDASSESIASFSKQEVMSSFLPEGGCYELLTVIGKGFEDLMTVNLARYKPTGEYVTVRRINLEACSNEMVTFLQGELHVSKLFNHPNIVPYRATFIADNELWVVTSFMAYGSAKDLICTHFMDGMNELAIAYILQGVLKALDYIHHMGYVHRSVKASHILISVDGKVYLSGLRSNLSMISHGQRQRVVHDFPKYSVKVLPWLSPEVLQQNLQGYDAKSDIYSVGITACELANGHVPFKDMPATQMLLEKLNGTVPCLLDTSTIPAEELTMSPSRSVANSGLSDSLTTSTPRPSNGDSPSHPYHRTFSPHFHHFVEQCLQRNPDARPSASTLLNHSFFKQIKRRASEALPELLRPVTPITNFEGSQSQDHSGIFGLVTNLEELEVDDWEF", "assay": "Binding affinity to LYK5 in human SUM159 cell lysates by multiplexed inhibitor bead profiling-based LC-MS/MS analysis", "assay_type": "subcellular", "conditions": "Lysate"}}, "note": "Active and inactive are the calls of the source. No cut-off for these calls is given here.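 Throughout, for Kd: KINOMEscan competition binding with recombinant partial wild-type human EGFR (residues R669–V1011) produced in bacteria.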", "data": [{"smiles": "C#Cc1cccc(Nc2ccnc3cc(OC)c(OC)cc23)c1", "values": [{"measurement": "Kd", "setting": "[1]", "value": 0.00027, "unit": "µM"}, {"measurement": "IC50", "setting": "[2]", "value": 0.5, "unit": "µM"}, {"measurement": "IC50", "setting": "[3]", "value": 14, "unit": "µM"}, {"measurement": "IC50", "setting": "[4]", "value": 13, "unit": "µM"}, {"measurement": "IC50", "setting": "[5]", "value": 13, "unit": "µM"}, {"measurement": "Activity", "setting": "[6]", "value": "Active"}]}]}
